From ChEMBL document CHEMBL2150986, “Synthesis and biological evaluation of 1-benzylidene-3,4-dihydronaphthalen-2-one as a new class of microtubule-targeting agents” (J Med Chem, 2012)
pIC50: −log10 of the molar value.

How the values were obtained:
[1] = tested on: CCRF-CEM; experiment: Cytotoxicity against human CEM cells after 72 hrs by MTT assay; type: functional, cell-based
[2] = tested on: K562; experiment: Cytotoxicity against human K562 cells after 72 hrs by MTT assay; type: functional, cell-based; settings: K562, 72 h
[3] = tested on: HT-29; experiment: Cytotoxicity against human HT-29 cells after 72 hrs by MTT assay; type: functional, cell-based; settings: HT-29, 72 h
[4] = tested on: HCT-116; experiment: Cell cycle arrest in human HCT116 cells assessed as increase in accumulation at G2/M phase after 24 hrs by FACS flow cytometry; type: functional, cell-based
[5] = tested on: ZR-75-30; experiment: Cytotoxicity against human ZR75-30 cells after 72 hrs by MTT assay; type: functional, cell-based; settings: ZR-75-30, 72 h
[6] = biological target: Tubulin (Sus scrofa, UniProt P02554+P02550); experiment: Inhibition of porcine brain tubulin assembly measured every 1 min for 60 mins by turbidimetric analysis
[7] = tested on: HCT-116; experiment: Cell cycle arrest in human HCT116 cells assessed as decrease in accumulation at G1 phase after 24 hrs by FACS flow cytometry; type: functional, cell-based
[8] = tested on: HCT-116; experiment: Cell cycle arrest in human HCT116 cells assessed as decrease in accumulation at S phase after 24 hrs by FACS flow cytometry; type: functional, cell-based
[9] = tested on: HCT-116; experiment: Cell cycle arrest in human HCT116 cells assessed as accumulation at G2/M phase at 0.2 uM after 24 hrs by FACS flow cytometry (reference value: 13 %); type: functional
[10] = tested on: HCT-116; experiment: Cell cycle arrest in human HCT116 cells assessed as accumulation at G2/M phase at 2 uM after 24 hrs by FACS flow cytometry; type: functional
[11] = tested on: Mus musculus; experiment: Toxicity in nude BALB/c mouse xenografted with human HT-29 cells assessed as mortality at 100 mg/kg, ip qd after 21 days; type: organism-based; set-up: dose 100 mg/kg, route intraperitoneal; settings: in vivo, 504 h
[12] = tested on: Mus musculus; experiment: Toxicity in nude BALB/c mouse xenografted with human HT-29 cells assessed as mortality at 150 mg/kg, ip qd after 21 days; type: organism-based; set-up: dose 150 mg/kg, route intraperitoneal; settings: in vivo, 504 h
[13] = tested on: Mus musculus; experiment: Toxicity in nude BALB/c mouse xenografted with human HT-29 cells assessed as mortality at 300 mg/kg, ip qd after 21 days; type: organism-based; set-up: dose 300 mg/kg, route intraperitoneal; settings: in vivo, 504 h
[14] = tested on: HT-29; experiment: Antitumor activity against human HT-29 cells xenografted in nude BALB/c mouse assessed as decrease in tumor volume at 100 mg/kg, ip qd measured on day 21 relative to vehicle-treated control; type: functional; settings: route intraperitoneal
[15] = tested on: HT-29; experiment: Antitumor activity against human HT-29 cells xenografted in nude BALB/c mouse assessed as decrease in tumor volume at 150 mg/kg, ip qd measured on day 21 relative to vehicle-treated control; type: functional; settings: route intraperitoneal
[16] = tested on: HT-29; experiment: Antitumor activity against human HT-29 cells xenografted in nude BALB/c mouse assessed as decrease in tumor volume at 300 mg/kg, ip qd measured on day 21 relative to vehicle-treated control; type: functional; settings: route intraperitoneal
[17] = tested on: Mus musculus; experiment: Toxicity in nude BALB/c mouse xenografted with human HT-29 cells assessed as body weight change at 100 mg/kg, ip qd after 21 days (reference value: 2.7 g); type: organism-based; set-up: dose 100 mg/kg, route intraperitoneal; settings: in vivo, 504 h
[18] = tested on: Mus musculus; experiment: Toxicity in nude BALB/c mouse xenografted with human HT-29 cells assessed as body weight change at 150 mg/kg, ip qd after 21 days (reference value: 2.7 g); type: organism-based; set-up: dose 150 mg/kg, route intraperitoneal; settings: in vivo, 504 h
[19] = tested on: Mus musculus; experiment: Toxicity in nude BALB/c mouse xenografted with human HT-29 cells assessed as body weight change at 300 mg/kg, ip qd after 21 days (reference value: 2.7 g); type: organism-based; set-up: dose 300 mg/kg, route intraperitoneal; settings: in vivo, 504 h
[20] = tested on: Mus musculus; experiment: Toxicity in nude BALB/c mouse xenografted with human HT-29 cells assessed as effect on WBC count at 100 mg/kg, ip qd after 21 days (reference value: 25.38 +/- 0.22 x 10^3 mm'-3); type: organism-based; set-up: dose 100 mg/kg, route intraperitoneal; settings: in vivo, 504 h
[21] = tested on: Mus musculus; experiment: Toxicity in nude BALB/c mouse xenografted with human HT-29 cells assessed as effect on WBC count at 150 mg/kg, ip qd after 21 days (reference value: 25.38 +/- 0.22 x 10^3 mm'-3); type: organism-based; set-up: dose 150 mg/kg, route intraperitoneal; settings: in vivo, 504 h
[22] = tested on: Mus musculus; experiment: Toxicity in nude BALB/c mouse xenografted with human HT-29 cells assessed as effect on WBC count at 300 mg/kg, ip qd after 21 days (reference value: 25.38 +/- 0.22 x 10^3 mm'-3); type: organism-based; set-up: dose 300 mg/kg, route intraperitoneal; settings: in vivo, 504 h
[23] = tested on: Mus musculus; experiment: Toxicity in nude BALB/c mouse xenografted with human HT-29 cells assessed as effect on lymphocyte count at 100 mg/kg, ip qd after 21 days (reference value: 15.88 +/- 0.41 x 10^3 mm'-3); type: organism-based; set-up: dose 100 mg/kg, route intraperitoneal; settings: in vivo, 504 h
[24] = tested on: Mus musculus; experiment: Toxicity in nude BALB/c mouse xenografted with human HT-29 cells assessed as effect on lymphocyte count at 150 mg/kg, ip qd after 21 days (reference value: 15.88 +/- 0.41 x 10^3 mm'-3); type: organism-based; set-up: dose 150 mg/kg, route intraperitoneal; settings: in vivo, 504 h
[25] = tested on: Mus musculus; experiment: Toxicity in nude BALB/c mouse xenografted with human HT-29 cells assessed as effect on lymphocyte count at 300 mg/kg, ip qd after 21 days (reference value: 15.88 +/- 0.41 x 10^3 mm'-3); type: organism-based; set-up: dose 300 mg/kg, route intraperitoneal; settings: in vivo, 504 h
[26] = tested on: Mus musculus; experiment: Toxicity in nude BALB/c mouse xenografted with human HT-29 cells assessed as effect on platelet count at 100 mg/kg, ip qd after 21 days (reference value: 1509 +/- 34 x 10^3 mm'-3); type: organism-based; set-up: dose 100 mg/kg, route intraperitoneal; settings: in vivo, 504 h
[27] = tested on: Mus musculus; experiment: Toxicity in nude BALB/c mouse xenografted with human HT-29 cells assessed as effect on platelet count at 150 mg/kg, ip qd after 21 days (reference value: 1509 +/- 34 x 10^3 mm'-3); type: organism-based; set-up: dose 150 mg/kg, route intraperitoneal; settings: in vivo, 504 h
[28] = tested on: Mus musculus; experiment: Toxicity in nude BALB/c mouse xenografted with human HT-29 cells assessed as effect on platelet count at 300 mg/kg, ip qd after 21 days (reference value: 1509 +/- 34 x 10^3 mm'-3); type: organism-based; set-up: dose 300 mg/kg, route intraperitoneal; settings: in vivo, 504 h
[29] = tested on: Mus musculus; experiment: Toxicity in nude BALB/c mouse xenografted with human HT-29 cells assessed as effect on ALT level at 100 mg/kg, ip qd after 21 days (reference value: 28 +/- 0.4 IU/L); type: organism-based; set-up: dose 100 mg/kg, route intraperitoneal; settings: in vivo, 504 h
[30] = tested on: Mus musculus; experiment: Toxicity in nude BALB/c mouse xenografted with human HT-29 cells assessed as effect on ALT level at 150 mg/kg, ip qd after 21 days (reference value: 28 +/- 0.4 IU/L); type: organism-based; set-up: dose 150 mg/kg, route intraperitoneal; settings: in vivo, 504 h
[31] = tested on: Mus musculus; experiment: Toxicity in nude BALB/c mouse xenografted with human HT-29 cells assessed as effect on ALT level at 300 mg/kg, ip qd after 21 days (reference value: 28 +/- 0.4 IU/L); type: organism-based; set-up: dose 300 mg/kg, route intraperitoneal; settings: in vivo, 504 h
[32] = tested on: Mus musculus; experiment: Toxicity in nude BALB/c mouse xenografted with human HT-29 cells assessed as effect on ALP level at 100 mg/kg, ip qd after 21 days (reference value: 107.6 +/- 0.8 IU/L); type: organism-based; set-up: dose 100 mg/kg, route intraperitoneal; settings: in vivo, 504 h
[33] = tested on: Mus musculus; experiment: Toxicity in nude BALB/c mouse xenografted with human HT-29 cells assessed as effect on ALP level at 150 mg/kg, ip qd after 21 days (reference value: 107.6 +/- 0.8 IU/L); type: organism-based; set-up: dose 150 mg/kg, route intraperitoneal; settings: in vivo, 504 h
[34] = tested on: Mus musculus; experiment: Toxicity in nude BALB/c mouse xenografted with human HT-29 cells assessed as effect on ALP level at 300 mg/kg, ip qd after 21 days (reference value: 107.6 +/- 0.8 IU/L); type: organism-based; set-up: dose 300 mg/kg, route intraperitoneal; settings: in vivo, 504 h
[35] = tested on: Mus musculus; experiment: Toxicity in nude BALB/c mouse xenografted with human HT-29 cells assessed as change in kidney morphology at 100 to 300 mg/kg, ip qd after 21 days relative to vehicle-treated control; type: organism-based; set-up: dose 100-300 mg/kg, route intraperitoneal; settings: in vivo, 504 h
[36] = tested on: Mus musculus; experiment: Toxicity in nude BALB/c mouse xenografted with human HT-29 cells assessed as change in liver morphology at 100 to 300 mg/kg, ip qd after 21 days relative to vehicle-treated control; type: organism-based; set-up: dose 100-300 mg/kg, route intraperitoneal; settings: in vivo, 504 h
[37] = tested on: Mus musculus; experiment: Toxicity in nude BALB/c mouse xenografted with human HT-29 cells assessed as change in spleen morphology at 100 to 300 mg/kg, ip qd after 21 days relative to vehicle-treated control; type: organism-based; set-up: dose 100-300 mg/kg, route intraperitoneal; settings: in vivo, 504 h
[38] = tested on: HT-29; experiment: Antitumor activity against human HT-29 cells xenografted in ip dosed nude BALB/c mouse assessed as decrease in tumor volume administered as qd measured on day 21; type: functional, organism-based
[39] = tested on: Mus musculus; experiment: Toxicity in ICR mouse assessed as mortality at 150 to 600 mg/kg, ip administered on day 1; type: organism-based; set-up: dose 150-600 mg/kg, route intraperitoneal; settings: in vivo
[40] = tested on: Mus musculus; experiment: Toxicity in ICR mouse assessed as body weight loss at 600 mg/kg, ip administered on day 1 measured for 10 days relative to vehicle-treated control; type: organism-based; set-up: dose 600 mg/kg, route intraperitoneal; settings: in vivo, 240 h
[41] = tested on: HCT-116; experiment: cells; settings: Homo sapiens, HCT-116, 72 h
[42] = tested on: MDA-MB-435; experiment: cells; settings: Homo sapiens, MDA-MB-435, 72 h
Description: Cytotoxicity against human MDA-MB-435 cells after 72 hrs by MTT assay

## COc1ccc2c(c1)CCC(=O)/C2=C/c1cc(OC)c(OC)c(OC)c1
[1]
  pIC50: 9.00
[2]
  pIC50: 9.00
[3]
  pIC50: 8.00
[4]
  Activity: Dose-dependent effect
[5]
  pIC50: 8.00
[6]
  IC50: 3930 nM
[7]
  Activity: Dose-dependent effect
[8]
  Activity: Dose-dependent effect
[9]
  Activity: 17%
[10]
  Activity: 74%
[11]
  Activity: Non-toxic
[12]
  Activity: Non-toxic
[13]
  Activity: Non-toxic
[14]
  T/C: 52%
[15]
  T/C: 45%
[16]
  T/C: 34%
[17]
  Activity: 2.3 g
[18]
  Activity: 3 g
[19]
  Activity: 2.6 g
[20]
  Activity: 24.42 ×10³ /mm3
[21]
  Activity: 20.18 ×10³ /mm3
[22]
  Activity: 19.96 ×10³ /mm3
[23]
  Activity: 11.08 ×10³ /mm3
[24]
  Activity: 10.03 ×10³ /mm3
[25]
  Activity: 8.87 ×10³ /mm3
[26]
  Activity: 1440 ×10³ /mm3
[27]
  Activity: 1375 ×10³ /mm3
[28]
  Activity: 1240 ×10³ /mm3
[29]
  Activity: 24 IU/L
[30]
  Activity: 28 IU/L
[31]
  Activity: 26 IU/L
[32]
  Activity: 112 IU/L
[33]
  Activity: 116.3 IU/L
[34]
  Activity: 107.6 IU/L
[35]
  Activity: Non-toxic
[36]
  Activity: Non-toxic
[37]
  Activity: Non-toxic
[38]
  Activity: Dose-dependent effect
[39]
  Activity: Non-toxic
[40]
  Activity: Non-toxic
[41]
  pIC50: 7.00
[42]
  pIC50: 9.00
